Measured values published in ChEMBL document CHEMBL5370603, “N-(2-Aminophenyl)-benzamide Inhibitors of Class I HDAC Enzymes with Antiproliferative and Antifibrotic Activity” (J Med Chem, 2023).
Active and inactive are the calls of the source. The calls are words filed in the database; no cut-off is given here.

Experiments:
[1] = test system: A549; assay: Antiproliferative activity against human A549 cells assessed as inhibition of cell growth incubated for 72 hrs by MTT assay; format: functional, cell-based; details: A549, 72 h
[2] = test system: SF-268; assay: Antiproliferative activity against human SF-268 cells assessed as inhibition of cell growth incubated for 72 hrs by MTT assay; format: functional, cell-based; details: SF-268, 72 h
[3] = biological target: T1, Protein deacetylase HDAC6 (Homo sapiens, UniProt Q9UBN7); assay: Inhibition of C-terminal FLAG-tagged human recombinant full length HDAC6 expressed in baculovirus expression system using Boc-Lys(Ac)-AMC as substrate preincubated with enzyme for 15 mins followed by substrate addition and measured after 60 mins by fluorescence based analysis
T1 sequence (Q9UBN7 whole entry): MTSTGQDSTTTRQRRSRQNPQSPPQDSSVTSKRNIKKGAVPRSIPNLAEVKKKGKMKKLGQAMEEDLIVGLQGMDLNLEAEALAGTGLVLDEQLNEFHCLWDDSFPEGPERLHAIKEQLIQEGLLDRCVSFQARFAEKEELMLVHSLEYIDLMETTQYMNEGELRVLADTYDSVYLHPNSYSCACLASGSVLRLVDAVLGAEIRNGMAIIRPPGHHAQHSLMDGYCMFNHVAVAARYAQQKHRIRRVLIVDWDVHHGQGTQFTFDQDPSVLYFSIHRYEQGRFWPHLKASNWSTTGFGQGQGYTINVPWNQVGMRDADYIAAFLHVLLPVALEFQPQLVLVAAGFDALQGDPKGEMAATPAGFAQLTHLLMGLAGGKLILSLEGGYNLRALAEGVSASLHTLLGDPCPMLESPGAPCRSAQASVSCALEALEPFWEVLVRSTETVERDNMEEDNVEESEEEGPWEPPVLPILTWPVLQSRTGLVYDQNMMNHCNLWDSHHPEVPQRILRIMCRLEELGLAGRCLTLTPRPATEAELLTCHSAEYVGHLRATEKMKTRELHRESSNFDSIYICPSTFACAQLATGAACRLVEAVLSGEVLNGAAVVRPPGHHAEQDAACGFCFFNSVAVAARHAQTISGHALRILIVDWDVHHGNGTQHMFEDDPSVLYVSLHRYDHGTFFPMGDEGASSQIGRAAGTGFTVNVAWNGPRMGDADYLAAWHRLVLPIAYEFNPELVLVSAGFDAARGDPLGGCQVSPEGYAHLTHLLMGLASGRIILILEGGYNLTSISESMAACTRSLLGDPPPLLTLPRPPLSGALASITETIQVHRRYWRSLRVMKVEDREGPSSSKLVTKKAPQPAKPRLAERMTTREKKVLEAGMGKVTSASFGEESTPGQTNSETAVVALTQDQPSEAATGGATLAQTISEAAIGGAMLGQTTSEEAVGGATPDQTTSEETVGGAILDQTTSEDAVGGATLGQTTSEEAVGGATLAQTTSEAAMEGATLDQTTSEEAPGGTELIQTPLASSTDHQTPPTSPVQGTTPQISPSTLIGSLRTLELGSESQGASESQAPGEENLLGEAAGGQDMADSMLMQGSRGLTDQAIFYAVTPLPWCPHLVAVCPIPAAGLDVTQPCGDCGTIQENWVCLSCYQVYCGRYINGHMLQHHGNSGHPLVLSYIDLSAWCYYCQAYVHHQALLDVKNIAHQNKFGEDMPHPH

[4] = biological target: T2, Histone deacetylase 1 (Homo sapiens, UniProt Q13547); assay: Inhibition of human recombinant HDAC1 using Ac-Leu-Gly-Lys(Ac)-AMC as substrate preincubated with enzyme for 30 mins followed by substrate addition and measured after 90 mins by fluorescence based analysis
T2 sequence (Q13547 whole entry, the tested form may be a part): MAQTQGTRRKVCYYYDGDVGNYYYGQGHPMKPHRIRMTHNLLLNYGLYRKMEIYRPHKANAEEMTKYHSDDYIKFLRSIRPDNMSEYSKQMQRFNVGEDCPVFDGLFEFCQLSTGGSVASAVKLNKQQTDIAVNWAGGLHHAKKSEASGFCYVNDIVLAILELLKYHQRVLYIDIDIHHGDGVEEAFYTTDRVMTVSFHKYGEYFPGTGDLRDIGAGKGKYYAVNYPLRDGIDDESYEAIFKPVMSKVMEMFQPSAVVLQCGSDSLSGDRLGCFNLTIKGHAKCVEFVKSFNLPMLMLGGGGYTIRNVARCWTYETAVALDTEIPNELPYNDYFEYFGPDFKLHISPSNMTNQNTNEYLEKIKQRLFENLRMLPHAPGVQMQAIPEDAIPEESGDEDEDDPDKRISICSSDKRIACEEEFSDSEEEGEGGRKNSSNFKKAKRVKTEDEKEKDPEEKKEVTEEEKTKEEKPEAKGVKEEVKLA

[5] = biological target: Histone deacetylase 4 (Homo sapiens, UniProt P56524); assay: Inhibition of N-terminal GST-tagged/C-terminal His tagged human recombinant HDAC4 (627 to 1084 residues) expressed in baculovirus-infected Sf9 cells using Ac-Leu-Gly-Lys(trifluoroAc)-AMC as substrate preincubated with enzyme for 15 mins followed by substrate addition and measured after 60 mins by fluorescence based analysis
Chain of Histone deacetylase 4 (P56524 whole entry, the tested form may be a part): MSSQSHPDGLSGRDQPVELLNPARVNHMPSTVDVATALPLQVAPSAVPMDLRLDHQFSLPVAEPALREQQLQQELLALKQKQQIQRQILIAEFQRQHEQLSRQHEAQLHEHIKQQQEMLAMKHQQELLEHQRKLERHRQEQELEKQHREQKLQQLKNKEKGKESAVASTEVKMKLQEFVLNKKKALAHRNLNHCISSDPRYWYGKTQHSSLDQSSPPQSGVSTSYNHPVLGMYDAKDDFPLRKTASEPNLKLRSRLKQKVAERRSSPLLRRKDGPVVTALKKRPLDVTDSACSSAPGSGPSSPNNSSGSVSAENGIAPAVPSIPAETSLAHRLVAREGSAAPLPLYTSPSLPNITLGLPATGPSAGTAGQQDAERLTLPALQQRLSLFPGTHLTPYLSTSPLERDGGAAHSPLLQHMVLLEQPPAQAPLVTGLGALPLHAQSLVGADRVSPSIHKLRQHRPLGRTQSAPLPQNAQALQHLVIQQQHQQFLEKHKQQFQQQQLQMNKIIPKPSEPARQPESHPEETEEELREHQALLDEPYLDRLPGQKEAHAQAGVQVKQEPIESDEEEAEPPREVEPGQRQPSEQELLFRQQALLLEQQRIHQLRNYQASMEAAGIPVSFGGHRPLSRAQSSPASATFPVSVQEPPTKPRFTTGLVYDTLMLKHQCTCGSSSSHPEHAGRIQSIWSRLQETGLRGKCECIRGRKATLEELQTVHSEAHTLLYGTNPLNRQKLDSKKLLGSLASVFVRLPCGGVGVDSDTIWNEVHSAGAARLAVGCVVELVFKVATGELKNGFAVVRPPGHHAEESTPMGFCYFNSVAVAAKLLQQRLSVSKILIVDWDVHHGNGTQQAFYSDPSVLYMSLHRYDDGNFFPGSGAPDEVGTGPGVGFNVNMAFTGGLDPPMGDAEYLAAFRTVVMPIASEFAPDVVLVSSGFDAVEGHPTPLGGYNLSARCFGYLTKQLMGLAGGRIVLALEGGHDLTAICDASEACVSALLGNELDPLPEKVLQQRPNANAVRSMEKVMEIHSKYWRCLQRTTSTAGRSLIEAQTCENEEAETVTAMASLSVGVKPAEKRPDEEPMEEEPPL

[6] = biological target: T3, Histone deacetylase 8 (Homo sapiens, UniProt Q9BY41); assay: Inhibition of C-terminal His-tagged human recombinant full length HDAC8 (1 to 377 residues) expressed in Sf9 cells using Ac-Leu-Gly-Lys(trifluoroAc)-AMC as substrate preincubated with enzyme for 30 mins followed by substrate addition and measured after 90 mins by fluorescence based analysis
T3 sequence (Q9BY41 whole entry): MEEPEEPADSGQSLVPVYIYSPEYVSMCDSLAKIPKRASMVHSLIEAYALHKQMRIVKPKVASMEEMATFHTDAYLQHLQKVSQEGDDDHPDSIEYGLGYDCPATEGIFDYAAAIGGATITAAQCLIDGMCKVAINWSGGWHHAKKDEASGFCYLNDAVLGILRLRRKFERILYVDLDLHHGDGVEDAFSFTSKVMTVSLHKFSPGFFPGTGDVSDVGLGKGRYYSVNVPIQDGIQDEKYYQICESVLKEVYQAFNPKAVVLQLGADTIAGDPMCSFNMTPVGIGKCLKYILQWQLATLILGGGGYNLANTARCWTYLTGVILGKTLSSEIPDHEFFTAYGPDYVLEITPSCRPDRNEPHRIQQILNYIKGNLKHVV

[7] = biological target: Histone deacetylase 3 (Homo sapiens, UniProt O15379); assay: Inhibition of human recombinant HDAC3 using Ac-Leu-Gly-Lys(Ac)-AMC as substrate preincubated with enzyme for 30 mins followed by substrate addition and measured after 90 mins by fluorescence based analysis
Chain of Histone deacetylase 3 (O15379 whole entry): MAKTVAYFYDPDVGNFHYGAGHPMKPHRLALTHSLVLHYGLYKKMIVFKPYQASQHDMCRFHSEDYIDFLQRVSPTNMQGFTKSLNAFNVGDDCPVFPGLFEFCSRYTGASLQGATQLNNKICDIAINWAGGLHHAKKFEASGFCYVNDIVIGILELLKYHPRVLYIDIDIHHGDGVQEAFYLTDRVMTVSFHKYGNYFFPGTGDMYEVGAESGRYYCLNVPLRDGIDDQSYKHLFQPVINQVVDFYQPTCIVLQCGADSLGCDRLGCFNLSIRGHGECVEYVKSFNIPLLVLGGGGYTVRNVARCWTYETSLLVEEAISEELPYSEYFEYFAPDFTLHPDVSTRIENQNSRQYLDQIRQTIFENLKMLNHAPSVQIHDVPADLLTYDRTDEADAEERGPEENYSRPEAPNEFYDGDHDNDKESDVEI

[8] = biological target: Histone deacetylase 2 (Homo sapiens, UniProt Q92769); assay: Inhibition of human recombinant HDAC2 using Ac-Leu-Gly-Lys(Ac)-AMC as substrate preincubated with enzyme for 30 mins followed by substrate addition and measured after 90 mins by fluorescence based analysis
Chain of Histone deacetylase 2 (Q92769 whole entry): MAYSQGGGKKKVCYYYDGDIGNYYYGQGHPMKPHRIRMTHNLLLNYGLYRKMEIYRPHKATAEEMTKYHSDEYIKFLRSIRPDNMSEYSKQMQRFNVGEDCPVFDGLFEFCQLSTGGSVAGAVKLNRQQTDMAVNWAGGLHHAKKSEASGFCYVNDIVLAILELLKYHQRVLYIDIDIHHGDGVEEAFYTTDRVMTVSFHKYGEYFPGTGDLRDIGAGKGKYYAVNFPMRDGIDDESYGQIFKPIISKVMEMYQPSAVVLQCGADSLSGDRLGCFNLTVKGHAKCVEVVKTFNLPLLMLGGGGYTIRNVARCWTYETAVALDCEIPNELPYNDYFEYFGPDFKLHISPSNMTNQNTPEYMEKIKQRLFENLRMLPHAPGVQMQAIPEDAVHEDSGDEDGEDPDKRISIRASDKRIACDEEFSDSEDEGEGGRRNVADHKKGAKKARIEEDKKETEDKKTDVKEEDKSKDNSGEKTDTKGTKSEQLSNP

[9] = test system: Caco-2; assay: Antiproliferative activity against human Caco-2 cells assessed as inhibition of cell growth incubated for 72 hrs by MTT assay; format: functional, cell-based; details: Caco-2, 72 h
[10] = biological target: T4, Protein deacetylase HDAC6 (Homo sapiens) (UniProt Q9UBN7); assay: Inhibition of HDAC6 in human A549 cells assessed as increase in acetylated alpha-tubulin level at 5 uM incubated for 48 hrs by immunoblot analysis; format: cell-based
T4 sequence (whole entry): T1 sequence (Q9UBN7 whole entry)

[11] = biological target: T5, Class 1 histone deacetylase (Homo sapiens) (UniProt Q13547+O15379+Q92769+Q9BY41); assay: Inhibition of class I HDAC in human A549 cells assessed as downregulation of STAT3 gene expression at 5 uM incubated for 48 hrs by qRT-PCR analysis; format: cell-based
[12] = biological target: T5, Class 1 histone deacetylase (Homo sapiens); assay: Inhibition of class I HDAC in human A549 cells assessed as downregulation of EGFR protein expression at 5 uM incubated for 48 hrs by western blot analysis; format: cell-based
[13] = biological target: T5, Class 1 histone deacetylase (Homo sapiens); assay: Inhibition of class I HDAC in human A549 cells assessed as increase in histone H3 acetylation at 5 uM incubated for 48 hrs by immunoblot analysis; format: cell-based
[14] = biological target: T5, Class 1 histone deacetylase (Homo sapiens); assay: Inhibition of class I HDAC in human A549 cells assessed as downregulation of EGFR gene expression at 5 uM incubated for 48 hrs by qRT-PCR analysis; format: cell-based
[15] = biological target: T5, Class 1 histone deacetylase (Homo sapiens); assay: Inhibition of class I HDAC in human A549 cells assessed as downregulation of ERBB2 gene expression at 5 uM incubated for 48 hrs by qRT-PCR analysis; format: cell-based
[16] = biological target: T5, Class 1 histone deacetylase (Homo sapiens); assay: Inhibition of class I HDAC in human A549 cells assessed as downregulation of MYC gene expression at 5 uM incubated for 48 hrs by qRT-PCR analysis; format: cell-based
[17] = biological target: T2, Histone deacetylase 1; assay: Inhibition of human recombinant HDAC1 using Ac-Leu-Gly-Lys(Ac)-AMC as substrate preincubated with enzyme for 30 mins followed by substrate addition and measured after 90 mins by fluorescence based analysis relative to control; details: time 120.0 min

Row | SMILES | IC50 [1] [µM] | IC50 [2] [µM] | IC50 [3] [µM] | IC50 [4] [µM] | IC50 [8] [µM] | further results
1 | O=C(O)c1ccc(COc2ccc(CNC(=O)[C@@H]3CCC(=O)N3Cc3ccc(Br)cc3)cc2)cc1 | > 25 | > 25 | > 10 | > 10 | – | –
2 | Nc1ccccc1NC(=O)c1ccc(COc2ccc(CNC(=O)[C@@H]3CCCN3C(=O)OCc3ccccc3)cc2)cc1 | > 25 | 12.7 | > 10 | 0.202 | – | –
3 | NCc1ccc(OCc2ccc(C(=O)Nc3ccccc3N)cc2)cc1 | > 25 | 8.5 | > 10 | 0.1 | – | IC50 [5]: > 100 µM; IC50 [6]: > 10 µM; IC50 [7]: 0.052 µM
4 | O=C(NCc1ccc(OCc2ccc(B(O)O)cc2)cc1)[C@@H]1CCC(=O)N1Cc1ccccc1 | > 25 | > 25 | > 10 | > 10 | – | –
5 | Nc1ccccc1NC(=O)c1ccc(COc2ccc(CNC(=O)[C@H]3CCC(=O)N3Cc3ccccc3)cc2)cc1 | 3.9 | 3.4 | > 100 | 0.092 | 0.143 | IC50 [5]: > 100 µM; IC50 [6]: > 10 µM; IC50 [9]: 1.9 µM; inhibition [10]: inactive; inhibition [11]: inactive; inhibition [12]: Active; inhibition [13]: Active; inhibition [14]: Active; inhibition [15]: inactive; IC50 [7]: 0.431 µM; inhibition [16]: inactive
6 | O=C(O)c1ccc(COc2ccc(CNC(=O)[C@@H]3CCC(=O)N3Cc3ccccc3)cc2)cc1 | > 25 | > 25 | > 10 | > 10 | – | –
7 | Nc1ccccc1NC(=O)c1ccc(COc2ccc(CNC(=O)[C@@H]3CCC(=O)N3Cc3ccc(F)cc3)cc2)cc1 | 6.9 | 6.5 | > 100 | 0.216 | 0.348 | IC50 [9]: 1.9 µM
8 | CC(C)(C)OC(=O)NCc1ccc(OCc2ccc(C(=O)Nc3ccccc3N)cc2)cc1 | 14.6 | 8.6 | > 10 | 1.71 | – | –
9 | Nc1ccccc1NC(=O)c1ccc(COc2ccc(CNC(=O)c3ccccn3)cc2)cc1 | 6.8 | 9.8 | > 10 | 0.2 | – | –
10 | Nc1ccccc1NC(=O)c1ccc(COc2ccc(CNC(=O)[C@@H]3CCCN3Cc3ccccc3)cc2)cc1 | 3.7 | 3.4 | > 100 | 0.113 | 0.192 | IC50 [5]: > 100 µM; IC50 [6]: > 10 µM; IC50 [9]: 1.9 µM; inhibition [10]: inactive; inhibition [11]: inactive; inhibition [12]: Active; inhibition [13]: Active; inhibition [14]: Active; inhibition [15]: inactive; IC50 [7]: 0.387 µM; inhibition [16]: inactive
11 | O=C(O)c1ccc(COc2ccc(CNC(=O)[C@@H]3CCCN3Cc3ccccc3)cc2)cc1 | > 25 | > 25 | > 10 | > 10 | – | –
12 | Nc1ccccc1NC(=O)c1ccc(COc2ccc(CNC(=O)[C@H]3CCCN3Cc3ccccc3)cc2)cc1 | 4.7 | 3.1 | > 100 | 0.093 | 0.083 | –
13 | Nc1ccccc1NC(=O)c1ccc(COc2ccc(CNC(=O)C3CCCO3)cc2)cc1 (stereo not given) | > 25 | > 25 | > 10 | 0.111 | – | inhibition [17]: 75%
14 | Nc1ccccc1NC(=O)c1ccc(COc2ccc(CN3C(=O)CC[C@H]3CC(=O)NCc3ccccc3)cc2)cc1 | 15 | 7.1 | > 100 | 0.084 | 0.217 | –
15 | Nc1ccccc1NC(=O)c1ccc(COc2ccc(CNC(=O)[C@@H]3CCCN3Cc3ccc(F)cc3)cc2)cc1 | 5.1 | 4.8 | > 100 | 0.13 | 0.196 | –
16 | O=C(NCc1ccccc1)c1ccc(COc2ccc(CNC(=O)[C@@H]3CCC(=O)N3Cc3ccccc3)cc2)cc1 | > 25 | > 25 | > 10 | > 10 | – | –
17 | Nc1ccccc1NC(=O)c1ccc(COc2ccc(CNC(=O)c3cc4ccccc4[nH]3)cc2)cc1 | 5.2 | 16.5 | > 10 | 0.182 | – | –
18 | Nc1ccccc1NC(=O)c1ccc(COc2ccc(CNC(=O)[C@@H]3CCC(=O)N3Cc3ccc(Br)cc3)cc2)cc1 | 9.2 | 6.6 | > 100 | 0.051 | 0.082 | –
19 | O=C(Nc1ccccc1)c1ccc(COc2ccc(CNC(=O)[C@@H]3CCC(=O)N3Cc3ccccc3)cc2)cc1 | > 25 | > 25 | > 10 | > 10 | – | –
20 | Nc1ccccc1NC(=O)c1ccc(COc2ccc(NC(=O)[C@@H]3CCC(=O)N3Cc3ccccc3)cc2)cc1 | > 25 | > 25 | > 10 | 0.43 | – | inhibition [17]: 75%
21 | O=C(NO)c1ccc(COc2ccc(CNC(=O)[C@@H]3CCC(=O)N3Cc3ccccc3)cc2)cc1 | > 25 | – | 0.143 | 1.98 | – | –
22 | Nc1ccccc1NC(=O)c1ccc(COc2ccc(CNC(=O)[C@@H]3CCCN3)cc2)cc1 | 10 | 3.3 | > 100 | 0.055 | 0.072 | IC50 [5]: > 100 µM; IC50 [6]: > 10 µM; IC50 [7]: 0.061 µM
23 | Nc1ccccc1NC(=O)c1ccc(COc2ccc(CNC(=O)[C@@H]3CCCN3C(=O)c3ccccc3)cc2)cc1 | 16 | 9.2 | > 10 | 0.216 | – | –
